Measurements published in patent publication US7785828B1 (priority 2003, dated 2010).
Read-outs that look alike come from different tables or passages of the source.

Experiments:
Type in all cases: cell-based
[1] = test system: Mycosphaerella fijiensis
[2] = test system: Fusarium graminearum
[3] = test system: Septoria tritici
[4] = test system: Fusarium graminearum
[5] = Measurement taken at 144 hours after inoculation, fold improvement compared to DmAMP1
[6] = Measurement taken at 72 hours after inoculation, fold improvement compared to DmAMP1
[7] = Table 2C (mixed diversity library), improvement compared to reference defensin protein DmAMP
[8] = Table 2B (Dm-AMP1 based libraries), improvement compared to reference defensin protein (Rs-AFP2 for Table 2B [sic])

Row | Sequence | Antifungal activity, Mycosphaerella fijiensis (improvement compared to DmAMP1) [1, 5] | Antifungal activity, Fusarium graminearum (improvement compared to DmAMP1) [2, 6] | Antifungal activity, Septoria tritici (improvement compared to DmAMP1) [3, 5] | Activity (1): antifungal activity of the NP against Fusarium graminearium [4, 7] | Activity (1): antifungal activity of the NP against Fusarium graminearium [4, 8] | Antifungal activity, Mycosphaerella fijiensis (improvement compared to DmAMP1) [1] | Antifungal activity, Fusarium graminearum (improvement compared to DmAMP1) [2] | Antifungal activity, Septoria tritici (improvement compared to DmAMP1) [3]
1 | DGVKLCERASQTWSGHCGNTKHCDNQCKSWEKAKHGACHVRSGKHKCFCYFNC (Defensin like) [L7-58] | + (+ indicating 1- to 5-fold improvement compared to DmAMP1) | + (+ indicating 1- to 5-fold improvement compared to DmAMP1) | + (+ indicating 1- to 5-fold improvement compared to DmAMP1) | +++ (+++ indicates a >10-fold improvement) | – | – | – | –
2 | NLCERASKTWTGNCGNTKHCDTQCKNWEGAKHGACHVRSGKHKCFCYFNC (Defensin like) [L6-58] | + (+ indicating 1- to 5-fold improvement compared to DmAMP1) | +++ (+++ indicating >10-fold improvement) | + (+ indicating 1- to 5-fold improvement compared to DmAMP1) | – | +++ (+++ indicates a >10-fold improvement) | – | – | –
3 | NLCERASKTWTGNCGNTKHCDTQCKNWEGAKHGACHKRNGKWKCFCYFNC (Defensin like) [L3-42] | + (+ indicating 1- to 5-fold improvement compared to DmAMP1) | +++ (+++ indicating >10-fold improvement) | ++ (++ indicating >5- to 10-fold improvement) | – | +++ (+++ indicates a >10-fold improvement) | – | – | –
4 | DGVKLCERASQTWTGHCGNTKHCDNQCKNWEGAKHGACHKRSGKWKCFCYFNC (Defensin like) [L7-176] | + (+ indicating 1- to 5-fold improvement compared to DmAMP1) | + (+ indicating 1- to 5-fold improvement compared to DmAMP1) | + (+ indicating 1- to 5-fold improvement compared to DmAMP1) | +++ (+++ indicates a >10-fold improvement) | – | – | – | –
5 | DGVKLCEKPSQTWTGNCGNTKHCDTQCRNWEGAKHGACHKRNGKWKCFCYFNC (Defensin like) [L7-427] | + (+ indicating 1- to 5-fold improvement compared to DmAMP1) | ++ (++ indicating >5- to 10-fold improvement) | + (+ indicating 1- to 5-fold improvement compared to DmAMP1) | ++ (++ indicates a >5- to 10-fold improvement) | – | – | – | –
6 | NLCERASKTWTGNCGNTKHCDNQCKSWEGAKHGACHVRNGKHKCFCYFNC (Defensin like) [L9-33] | ++ (++ indicating >5- to 10-fold improvement) | +++ (+++ indicating >10-fold improvement) | +++ (+++ indicating >10-fold improvement) | – | ++ (++ indicates a >5- to 10-fold improvement) | – | – | –
7 | DGVKLCERASQTWTGHCGNTKHCDNQCRNWEGAKHGACHKRNGKWKCFCYFNC (Defensin like) [L7-337] | ++ (++ indicating >5- to 10-fold improvement) | +++ (+++ indicating >10-fold improvement) | + (+ indicating 1- to 5-fold improvement compared to DmAMP1) | ++ (++ indicates a >5- to 10-fold improvement) | – | – | – | –
8 | DGVKLCERASKTWSGHCGNTKHCDNQCRSWEGAKHGACHVRNGKWKCFCYFNC (Defensin like) [L7-452] | + (+ indicating 1- to 5-fold improvement compared to DmAMP1) | ++ (++ indicating >5- to 10-fold improvement) | + (+ indicating 1- to 5-fold improvement compared to DmAMP1) | +++ (+++ indicates a >10-fold improvement) | – | – | – | –
9 | DGVKLCERASKTWTGNCGNTKHCDKQCKNWEGAKHGACHVRNGKWKCFCYFNC (Defensin like) [L7-449] | + (+ indicating 1- to 5-fold improvement compared to DmAMP1) | +++ (+++ indicating >10-fold improvement) | ++ (++ indicating >5- to 10-fold improvement) | ++ (++ indicates a >5- to 10-fold improvement) | – | – | – | –
10 | NLCERASKTWTGNCGNTKHCDTQCKSWEGAKHGACHVRNGKHKCECYFNC (NLCERASKTWTGNCGNTKHCDTQCKSWEGAKHGACHVRNGKHKCFCYFNC; Defensin like) [L6-84] | +++ (+++ indicating >10-fold improvement) | +++ (+++ indicating >10-fold improvement) | + (+ indicating 1- to 5-fold improvement compared to DmAMP1) | – | +++ (+++ indicates a >10-fold improvement) | – | – | –
11 | NLCERASKTWTGNCGNTKHCDNQCKNWEGAKHGACHVRNGKWKCFCYFNC [L6-21] (Defensin like) | + (+ indicating 1- to 5-fold improvement compared to DmAMP1) | +++ (+++ indicating >10-fold improvement) | +++ (+++ indicating >10-fold improvement) | – | +++ (+++ indicates a >10-fold improvement) | – | – | –
12 | NLCERASKTWTGNCGNTKHCDTQCKSWESAKHGACHVRSGKHKCFCYFNC (Defensin like) [L3-64] | + (+ indicating 1- to 5-fold improvement compared to DmAMP1) | +++ (+++ indicating >10-fold improvement) | ++ (++ indicating >5- to 10-fold improvement) | – | + (+ indicates a 1- to 5-fold improvement in activity compared to a reference defensin protein) | – | – | –
13 | NLCERASKTWTGNCGNTKHCDNQCRSWEGAKHGACHVRNGKHKCFCYFNC (Defensin like) [L6-75] | + (+ indicating 1- to 5-fold improvement compared to DmAMP1) | +++ (+++ indicating >10-fold improvement) | +++ (+++ indicating >10-fold improvement) | – | ++ (++ indicates a >5- to 10-fold improvement) | – | – | –
14 | DGVKLCERASQTWTGHCGNTKHCDKQCKNWEGAKHGACHKRNGKWKCFCYFNC (Defensin like) [L7-432] | +++ (+++ indicating >10-fold improvement) | +++ (+++ indicating >10-fold improvement) | + (+ indicating 1- to 5-fold improvement compared to DmAMP1) | +++ (+++ indicates a >10-fold improvement) | – | – | – | –
15 | NLCERASKTWTGNCGNTKHCDTQCKSWEGAKHGACHVRNGKHKCFCYFNC (Defensin like) [L6-71] | + (+ indicating 1- to 5-fold improvement compared to DmAMP1) | +++ (+++ indicating >10-fold improvement) | + (+ indicating 1- to 5-fold improvement compared to DmAMP1) | – | +++ (+++ indicates a >10-fold improvement) | – | – | –
16 | NLCERASKTWSGNCGNTKHCDTQCKNWEGAKHGACHKRSGKWMCFCYFNC (Defensin like) [L3-144] | – | – | – | – | – | + (key: + indicating 1- to 5-fold improvement compared to DmAMP1; ++ indicating >5- to 10-fold improvement; +++ indicating >10-fold improvement) | ++ (key: + indicating 1- to 5-fold improvement compared to DmAMP1; ++ indicating >5- to 10-fold improvement; +++ indicating >10-fold improvement) | + (key: + indicating 1- to 5-fold improvement compared to DmAMP1; ++ indicating >5- to 10-fold improvement; +++ indicating >10-fold improvement)
17 | DGVKLCEKASQTWSGHCGNTKHCDNQCKNWEGAKHGACHKRNGKWKCFCYFNC [L7-350] (Defensin like) | – | – | – | – | – | + (key: + indicating 1- to 5-fold improvement compared to DmAMP1; ++ indicating >5- to 10-fold improvement; +++ indicating >10-fold improvement) | + (key: + indicating 1- to 5-fold improvement compared to DmAMP1; ++ indicating >5- to 10-fold improvement; +++ indicating >10-fold improvement) | + (key: + indicating 1- to 5-fold improvement compared to DmAMP1; ++ indicating >5- to 10-fold improvement; +++ indicating >10-fold improvement)
18 | NLCEKASKTWSGNCGNTKHCDNQCRSWEGAKHGACHVRNGKHKCFCYFNC (Defensin like) [L9-23] | – | – | – | – | – | ++ (key: + indicating 1- to 5-fold improvement compared to DmAMP1; ++ indicating >5- to 10-fold improvement; +++ indicating >10-fold improvement) | +++ (key: + indicating 1- to 5-fold improvement compared to DmAMP1; ++ indicating >5- to 10-fold improvement; +++ indicating >10-fold improvement) | ++ (key: + indicating 1- to 5-fold improvement compared to DmAMP1; ++ indicating >5- to 10-fold improvement; +++ indicating >10-fold improvement)
